The values that follow come from patent USRE42890E1, “Furazanobenzimidazoles” (Basilea Pharmaceutica AG, priority 2003, dated 2011).

Structures are written as SMILES. Read-outs that look alike come from different tables or passages of the source.

In test [1] the test system is adherent cells or suspension cells. The test can be described thus: Hoechst 33342 nuclear staining (fraction of apoptotic nuclei). Format: cell-based. Also noted: key: 0 relating to no activity; 1 relating to weak activity comprising less than 70% of the cells; score 2 relating to strong activity comprising more than 70% of the cells.
For the next test, the system named is Jily. The test can be described thus: MTS proliferation assay, Jily. Type of test: cell-based. The conditions noted are these: 72 h incubation, read-out: MTS proliferation assay IC 50 Jily. The method, then: (§1) Cell lines are cultured in RPMI-1640 tissue culture medium containing either 5% or 10% fetal calf serum, 0.05 mM 2-mercaptoethanol, 2 mM glutamine and penicillin/streptomycin 50 μg/ml (complete medium) (Sigma, Buchs, Switzerland). General growth conditions are 37° C. and 7.5% CO2.
(§2) The assay is performed in 96 well tissue culture plates. The cells (range: 1.5*10^3-10^4) are seeded out in 80 μl complete medium 24 h prior to compound treatment. The test compounds are added in 20 μl complete medium containing max 5% DMSO. The final compound concentrations in the assays are 10 μM, 3 μM, 1 μM and 0.3 μM, respectively. The assay plates are incubated for 72 h at culture conditions. The MTS reagent is prepared according to the manufacturer's protocol (Promega G1111). 20 μl MTS reagent are added to each well, the assay plates are quickly spun and incubated for another 3 h at culture conditions. Subsequently, the plates are shortly shaked and absorption measured with a microplate-reader at 492 nm.

The test system of the next test is HeLa. The test can be described thus: MTS proliferation assay, HeLa. Format: cell-based, human. The conditions noted are these: 72 h incubation, read-out: MTS proliferation assay IC 50 HeLa. The method, boiled down:
(§3)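 Absorbance at 492 nm after 3 h with MTS reagent gave the proliferation read-out. Before that, cells in RPMI-1640 complete medium (5% or 10% FCS) were treated 72 h with compound at four final concentrations, 0.3 to 10 μM.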

A further test deals with Jurkat. Kind of test: MTS proliferation assay, Jurkat. The conditions noted are these: 72 h incubation, read-out: MTS proliferation assay IC 50 Jurkat. Format: cell-based, human. The essentials: as §3
A general note: Tetrazolium assays rely on reduction of a dye to a coloured formazan, in cell work by metabolically active cells.

The subject of the next test is MRC5. The test can be described thus: MTS proliferation assay, MRC5. Format: cell-based. The conditions noted are these: MRC5, 72 h incubation; read-out: MTS proliferation assay IC 50 MRC5. The essentials:
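Read-out: MTS absorbance at 492 nm after 3 h reagent incubation. Before that, cells grew 72 h at 37° C/7.5% CO2 with test compounds at final concentrations of 10 μM, 3 μM, 1 μM and 0.3 μM, added 24 h post-seeding.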

In the next test the test system is HT1080. Kind of test: MTS proliferation assay, HT1080. Format: cell-based, human. The conditions noted are these: HT1080, 72 h incubation; read-out: MTS proliferation assay IC 50 HT1080. The method, then:
as §1
The following human cell lines (either EGFP transfected or not) are being used: HeLa (ATCC: CCL-2), KB (ATCC: CCL-17), MCF7 (ATCC: HTB-22), SK-BR-3 (ATCC: HTB-30), SK-Mel 1 (ATCC: HTB-67), SK-Mel 28 (ATCC: HTB-72), PC-3 (ATCC: CRL-1435), SW 480 (ATCC: CCL-228), NCl-H460 (ATCC: HTB-177), NCl-H1792 (ATCC: CRL-5895), HT1080 (ATCC: CCL-21), Jurkat (ATCC: TIB-152), Ramos (ATCC: CRL-1596), Raji (ATCC: CCL-86), H9 (ATCC: HTB-176), Hut78 (ATCC: TIB-161), K562 (ATCC: CCL 243), HL-60 (ATCC: CCL 240), U-87MG (ATCC: HTB-14), HepG2 (ATCC: HB-8065), U-2 OS (ATCC: HTB-96), Saos-2 (ATCC: HTB-85), U937 (ATCC: CRL 1593), Hs 578T (ATCC: HTB 126), HBL-100 (ATCC: HTB 124), Molt-4 (ATCC: CRL 1582).
as §2

As for `Cc1ccc(OCn2c(-c3nonc3NCCC#N)nc3ccccc32)cc1C` [Example 10, 4-[1-(3,4-Dimethylphenoxymethyl)-1H-benzimidazol-2-yl]-furazan-3-yl-N-(2-cyanoethyl)-amine], the “Hoechst 33342 nuclear staining score” value in test [1] (H460, conc 0.01 μm) is on record as 0; in test [1] (H460, conc 0.1 μm) it was 1 (1 relating to weak activity comprising less than 70% of the cells); in test [1] (H460, conc 1 μm) it was 2 (score 2 relating to strong activity comprising more than 70% of the cells); in test [1] (HeLa, conc 0.01 μm), 0; in test [1] (HeLa, conc 0.1 μm) it was 0; in test [1] (HeLa, conc 1 μm), 2 (score 2 relating to strong activity comprising more than 70% of the cells). Also, the “Hoechst 33342 nuclear staining score” value was 0 in test [1] (Jily, conc 0.01 μm); 1 (1 relating to weak activity comprising less than 70% of the cells) in test [1] (Jily, conc 0.1 μm); 2 (score 2 relating to strong activity comprising more than 70% of the cells) in test [1] (Jily, conc 1 μm); 0 in test [1] (Jurkat, conc 0.01 μm); 2 (score 2 relating to strong activity comprising more than 70% of the cells) in test [1] (Jurkat, conc 0.1 μm); 2 (score 2 relating to strong activity comprising more than 70% of the cells) in test [1] (Jurkat, conc 1 μm). For the same molecule, the “Hoechst 33342 nuclear staining score” value in test [1] (MRC5, conc 0.01 μm) is 0; in test [1] (MRC5, conc 0.1 μm) it was 0; in test [1] (MRC5, conc 1 μm) it was 1 (1 relating to weak activity comprising less than 70% of the cells); in test [1] (PBLs, conc 0.01 μm), 0; in test [1] (PBLs, conc 0.1 μm), 0; in test [1] (PBLs, conc 1 μm), 0. In addition, the values for the IC50 in the test with Jily and in the test with HeLa (Homo sapiens) were 10 to 100 nM and 100 to 1000 nM, respectively.

On to `O=C(Cn1c(-c2nonc2NCCCO)nc2ccccc21)c1ccc(Cl)cc1` [Example 11, 4-[1-(4-Chlorophenacyl)-1H-benzimidazol-2-yl]-furazan-3-yl-N-(3-hydroxypropyl)-amine], for which the “Hoechst 33342 nuclear staining score” value in test [1] (H460, conc 0.01 μm) was 0; in test [1] (H460, conc 0.1 μm), 0; in test [1] (H460, conc 1 μm) it was 2 (score 2 relating to strong activity comprising more than 70% of the cells); in test [1] (HeLa, conc 0.01 μm), 0; in test [1] (HeLa, conc 0.1 μm) it was 1 (1 relating to weak activity comprising less than 70% of the cells); in test [1] (HeLa, conc 1 μm), 2 (score 2 relating to strong activity comprising more than 70% of the cells). In addition, the “Hoechst 33342 nuclear staining score” value in test [1] (Jily, conc 0.01 μm) is 0; in test [1] (Jily, conc 0.1 μm), 2 (score 2 relating to strong activity comprising more than 70% of the cells); in test [1] (Jily, conc 1 μm), 2 (score 2 relating to strong activity comprising more than 70% of the cells); in test [1] (Jurkat, conc 0.01 μm), 0; in test [1] (Jurkat, conc 0.1 μm), 2 (score 2 relating to strong activity comprising more than 70% of the cells); in test [1] (Jurkat, conc 1 μm) it was 2 (score 2 relating to strong activity comprising more than 70% of the cells). In addition, the “Hoechst 33342 nuclear staining score” value is on record as 0 in test [1] (MRC5, conc 0.01 μm); 1 (1 relating to weak activity comprising less than 70% of the cells) in test [1] (MRC5, conc 0.1 μm); 2 (score 2 relating to strong activity comprising more than 70% of the cells) in test [1] (MRC5, conc 1 μm); 0 in test [1] (PBLs, conc 0.01 μm); 0 in test [1] (PBLs, conc 0.1 μm); 0 in test [1] (PBLs, conc 1 μm). The IC50 in the test with Jily lay in the range of 10 to 100 nM; with HeLa (Homo sapiens), 100 to 1000 nM.

`COc1cc2nc(-c3nonc3N)n(CC(=O)c3ccc(Br)cc3)c2cc1OC` [Example 115]: the “Hoechst 33342 nuclear staining score” value in test [1] (H460, conc 0.01 μm) was found to be 0; in test [1] (H460, conc 0.1 μm), 0; in test [1] (H460, conc 1 μm), 0; in test [1] (HeLa, conc 0.01 μm), 0; in test [1] (HeLa, conc 0.1 μm), 0; in test [1] (HeLa, conc 1 μm) it was 0. Moreover, the “Hoechst 33342 nuclear staining score” value in test [1] (Jily, conc 0.01 μm) came out at 0; in test [1] (Jily, conc 0.1 μm), 0; in test [1] (Jily, conc 1 μm), 0; in test [1] (Jurkat, conc 0.01 μm) it was 0; in test [1] (Jurkat, conc 0.1 μm) it was 0; in test [1] (Jurkat, conc 1 μm), 0. Further, the “Hoechst 33342 nuclear staining score” value in test [1] (MRC5, conc 0.01 μm) is listed as 0; in test [1] (MRC5, conc 0.1 μm), 0; in test [1] (MRC5, conc 1 μm), 0; in test [1] (PBLs, conc 0.01 μm) it was 0; in test [1] (PBLs, conc 0.1 μm), 0; in test [1] (PBLs, conc 1 μm) it was 0. Moreover, the IC50 in the test with Jurkat, with MRC5, with HeLa and with HT1080 was greater than 1000 nM throughout.

Regarding `COc1ccc(C(=O)Cn2c(-c3nonc3N)nc3cc(OC)c(OC)cc32)cc1` [Example 116], the “Hoechst 33342 nuclear staining score” value was determined as 0 in test [1] (H460, conc 0.01 μm); 0 in test [1] (H460, conc 0.1 μm); 0 in test [1] (H460, conc 1 μm); 0 in test [1] (HeLa, conc 0.01 μm); 0 in test [1] (HeLa, conc 0.1 μm); 0 in test [1] (HeLa, conc 1 μm). The “Hoechst 33342 nuclear staining score” value in test [1] (Jily, conc 0.01 μm) was 0; in test [1] (Jily, conc 0.1 μm) it was 0; in test [1] (Jily, conc 1 μm) it was 0; in test [1] (Jurkat, conc 0.01 μm), 0; in test [1] (Jurkat, conc 0.1 μm) it was 0; in test [1] (Jurkat, conc 1 μm), 0. Further, the “Hoechst 33342 nuclear staining score” value came to 0 in test [1] (MRC5, conc 0.01 μm); 0 in test [1] (MRC5, conc 0.1 μm); 0 in test [1] (MRC5, conc 1 μm); 0 in test [1] (PBLs, conc 0.01 μm); 0 in test [1] (PBLs, conc 0.1 μm); 0 in test [1] (PBLs, conc 1 μm). Further, the IC50 in the test on Jurkat, with MRC5, in the test on HeLa and with HT1080 was greater than 1000 nM throughout.

Take `COc1cc2nc(-c3nonc3N)n(CC(=O)c3ccc(-c4ccccc4)cc3)c2cc1OC` [Example 117]: the “Hoechst 33342 nuclear staining score” value in test [1] (H460, conc 0.01 μm) was 0; in test [1] (H460, conc 0.1 μm) it was 0; in test [1] (H460, conc 1 μm), 0; in test [1] (HeLa, conc 0.01 μm) it was 0; in test [1] (HeLa, conc 0.1 μm), 0; in test [1] (HeLa, conc 1 μm) it was 0. The “Hoechst 33342 nuclear staining score” value in test [1] (Jily, conc 0.01 μm) turned out to be 0; in test [1] (Jily, conc 0.1 μm) it was 0; in test [1] (Jily, conc 1 μm), 0; in test [1] (Jurkat, conc 0.01 μm), 0; in test [1] (Jurkat, conc 0.1 μm), 0; in test [1] (Jurkat, conc 1 μm), 0. Besides, the “Hoechst 33342 nuclear staining score” value in test [1] (MRC5, conc 0.01 μm) is 0; in test [1] (MRC5, conc 0.1 μm) it was 0; in test [1] (MRC5, conc 1 μm), 0; in test [1] (PBLs, conc 0.01 μm) it was 0; in test [1] (PBLs, conc 0.1 μm) it was 0; in test [1] (PBLs, conc 1 μm), 0. Also, the IC50 in the test with Jurkat, with MRC5, in the test with HeLa and in the test on HT1080 was greater than 1000 nM throughout.
